{"source": "patent US20220387369A1", "about": "“Prooxidative chain-transfer agents for use in the treatment of malignant tumour or infectious diseases” (Universitätsmedizin der Johannes Gutenberg-Universität Mainz, priority 2019, published 2022)", "key": {"HT22 cells": {"system": "HT22 cells", "assay": "Cytotoxic activity in cultivated HT22 cells (MTT), normoxic and hypoxic", "type": "cell-based, mouse", "conditions": "1 day or 3 days, 20% O2 vs 1% O2, FIG. 2B", "protocol": "(FIG. 2A) HT22 are a widely used, immortalized neuronal cell line that has been generated by transforming mouse neuronal tissue with the oncogenic SV40 T-antigen (Morimoto and Koshland, Neuron 5:875-880, 1990). HT22 cells were cultivated in high-glucose DMEM (Dulbecco's Modified Eagle's Medium) supplemented with 10% heat-inactivated FCS (fetal calf serum), 1 mM pyruvate, 100 mg/L streptomycin and 100 U/mL penicillin. For routine culture, cells were grown in 100 mm dishes at 37° C. in a humidified atmosphere containing 5% CO2. They were passaged three times per week on reaching approximately 90% confluence and splitted 1:10. All cell culture reagents were from Invitrogen, Carlsbad, Calif., USA.\nFor cell survival experiments, HT22 cells were seeded into 96-well plates at a density of ˜5000 cells per well in 0.1 mL medium. After 24 h cultivation, the cells were administered with the indicated concentrations of the tested compounds (n-octyl thiol (8-SH) or n-dodecyl thiol (12-SH)) dissolved in ethanol (final concentration: 1%). After 1 day or 3 days of incubation as indicated, cell survival was analyzed by colorimetric MTT reduction tests (MTT is 3-(4,5-dimethylthiazol-2-yl-)-2,5 diphenyltetrazolium bromide) which were performed exactly as described (Hajieva et al., J Neurochem 110:118-132, 2009). […]"}, "[1]": {"system": "Primary human fibroblasts", "assay": "8-Isoprostane release from diploid human fibroblasts", "type": "cell-based", "conditions": "100 μM, medium with 10% fetal calf serum, time course, FIG. 3C (a)", "protocol": "(§1) (FIG. 3A) Normal human diploid fibroblasts were cultivated under standard conditions stimulating cell division, i.e. with 10% serum in the medium. Specifically, the cells were grown in high-glucose DMEM (Dulbecco's Modified Eagle's Medium) supplemented with 10% heat-inactivated FCS (fetal calf serum), 1× non-essential amino acid (NEAA) supplement, 1 mM pyruvate, 100 mg/L streptomycin and 100 U/mL penicillin. For cultivation, the cells were maintained at 37° C. in a humidified atmosphere containing 5% CO2. The cells were generally passaged on reaching approximately 90% confluence and were seeded, after counting of the PDLs (population doublings), in new dishes at a density of 10^6 cells per dish in 100 mm dishes, or at a density of 10^4 cells per well in 96-well plates. Cells were used for experiments at PDL 25-30. All cell culture reagents were from Invitrogen, Carlsbad, Calif., USA.\n(FIG. 3C) 8-Isoprostanes. Cells cultivated in 96-well plates for 24 h were administered with 100 μM n-dodecyl thiol (12-SH) for the indicated time before removing the cell culture supernatant for 8-isoprostane analysis. 8-Isoprostane analysis was achieved by a commercial enzyme immunoassay (Cayman Chemicals, Ann Arbor, Mich., USA), which was conducted as detailed in the manufacturers instructions."}, "[2]": {"system": "Primary human fibroblasts", "assay": "Protein polyubiquitination in diploid human fibroblasts (Western blot)", "type": "cell-based", "conditions": "500 μM, medium with 10% fetal calf serum, time course, FIG. 3C (b)", "protocol": "as §1\nProtein polyubiquitination. Cells cultivated in 100 mm dishes for 24 h were administered with 500 μM n-dodecyl thiol (12-SH) for the indicated time before harvesting of the cells in lysis buffer (50 mM Tris-HCl, pH 7.4, 10% sucrose, 1 mM EDTA, 1 mM EGTA, 1 mM Na3VO4, 1 mM NaF, 1× protease inhibitor cocktail from Sigma-Aldrich, St. Louis, Mo., USA) followed by brief sonication and denaturation at 95° C. for 2 min. […] Densitometric quantification was performed using automated image analysis software."}, "[3]": {"system": "Native lipid membranes from rat brain", "assay": "Lipid peroxidation (malondialdehyde/TBARS) in native rat brain membranes", "type": "biochemical", "protocol": "Native biological membranes from adult rat brain were prepared by differential centrifugation as described (Moosmann and Behl, Proc Nati Acad Sci USA 96:8867-8872, 1999). Samples containing 0.5 mg/ml total protein (as per bicinchoninic acid assay from Pierce, Rockford, Ill., USA) were solubilized by brief sonication in PBS (phosphate-buffered saline) and administered with the indicated concentrations of n-dodecyl thiol (12-SH; from Sigma-Aldrich, St. Louis, Mo., USA) dissolved in ethanol (final concentration: 0.1%). Subsequently, 10 μM Fe^2+/200 μM ascorbate were added as radical-initiating mix; controls received vehicle (water). After the indicated time, the reaction was stopped by adding 2.5 volumes of 5% trichloroacetic acid in 1 M acetic acid, followed by centrifugation (10,000 g for 10 min). Subsequently, thiobarbituric acid-reactive substances (TBARS) as marker of lipid peroxidation were quantified fluorimetrically as detailed before (Hajieva et al., J Neurochem 110:118-132, 2009)."}, "C. elegans [4]": {"system": "C. elegans", "assay": "Toxicity (survival) in nematodes in vivo", "set-up": "species or system Caenorhabditis elegans", "conditions": "0.5 mM in minimum diet with varying amounts of coliform bacteria, oral, FIG. 4 (a)", "protocol": "Caenorhabditis elegans N2 Bristol strain animals were expanded and cultivated at 20° C. on nematode growth medium (NGM) plates in the presence of Escherichia coli strain HB101 as food source following standard protocols (Mocko et al., Neurobiol Dis 40:120-129, 2010). For the toxicity experiments, synchronized adult worms aged 2 days were maintained in liquid culture medium (S-Basal medium supplemented with 5 mg/L cholesterol, 100 mg/L streptomycin, 100 mg/L fluorodeoxyuridine (FUDR)) to which varying amounts of Escherichia coli were added (measured as optical density (OD) at 600 nm wavelength) as described (Mair et al., PLoS One 4:e4535, 2009). Worms distributed in 48-well plates were administered with 500 μM n-dodecyl thiol (12-SH) dissolved in ethanol (final concentration: 1%) and analyzed, after the indicated time, for survival by visual inspection and mechanical stimulation (nose-touch assay) as detailed (Mocko et al., Neurobiol Dis 40:120-129, 2010)."}, "C. elegans [5]": {"system": "C. elegans", "assay": "8-Isoprostane in homogenates of treated nematodes", "type": "in vivo, Caenorhabditis elegans", "conditions": "0.1 mM or 0.5 mM, FIG. 4 (b)", "protocol": "8-Isoprostanes. Synchronized, 4-day-old adult worms distributed in cell culture flasks were administered with the indicated concentration of n-dodecyl thiol (12-SH) dissolved in ethanol (final concentration: 1%) and cultivated for 6 h or 48 has indicated. The worms were collected by centrifugation at 1200 g, washed twice with S-Basal medium, and once with DMEM medium containing 100 μM butylated hydroxytoluene (BHT). The worms were then homogenized in DMEM/BHT by sonication (3×20 s at 30 kHz on ice). Equal amounts of protein of the resulting homogenate (as per bicinchoninic acid assay from Pierce, Rockford, Ill., USA) were probed for the presence of 8-isoprostane by a commercial enzyme immunoassay (Cayman Chemicals, Ann Arbor, Mich., USA) following the manufacturer's instructions."}, "Drosophila melanogaster": {"system": "Drosophila melanogaster", "assay": "Ultrastructural effects in fruit flies in vivo (electron microscopy)", "conditions": "1 mM in the feed, electron micrographs", "protocol": "Male Drosophila melanogaster (strain Oregon-R) were maintained at 25° C. in plastic vials covered with air-permeable lids and received standard food (50 g/L refined household sugar, 50 g/L baker's yeast, and 20 g/L agar powder). The medium was boiled under stirring, adding the following supplements at approximately 70° C.: 3 g/L methylparabene (dissolved in ethanol, final concentration: 0.15%), 3 mL/L propionic acid and the appropriate amount of n-dodecyl thiol (12-SH) dissolved in ethanol (final concentration: 0.1%). Synchronized male flies were transferred into new vials and scored for survival every other day. Treatment started on day 2 of adulthood. Electron microscopy. Flies harvested after 50 days of treatment were cryofixed by plunge freezing, cut into head, thorax and abdomen before chemical fixation for 90 min with 3% glutaraldehyde and 3% formaldehyde in PBS. The tissues were washed, fixed with 2% OsO4, washed again, dehydrated with rising concentrations of ethanol, transitionally stabilized with propylene oxide and embedded into epoxy resin essentially as described (Bozzola and Russel, Electron Microscopy: Jones and Bartlett Publishers, Inc., Sudbury, M A, 1999). The polymerized blocks were mounted, trimmed, and sectioned in an ultramicrotome before transfer onto electron microscopy grids. Images were acquired under standard conditions in a Tecnai Transmission Electron Microscope (FEI Company, Hillsboro, Oreg., USA)."}}}
{"compound": "CCCCCCCCCCCCS", "note": "[n-dodecylthiol]", "values": [{"measurement": "cytotoxic effectiveness under hypoxic versus normal oxygen conditions", "setting": "HT22 cells", "value": "not compromised by hypoxic conditions"}, {"measurement": "concentration of released lipid peroxidation marker 8-isoprostane", "setting": "[1]", "value": "increased significantly within a few hours"}, {"measurement": "amount of polyubiquitinated proteins in the cell (marker of protein damage)", "setting": "[2]", "value": "increased significantly within a few hours"}, {"measurement": "extent of lipid peroxidation (as malondialdehyde)", "setting": "[3]; absence of any radical initiation (\"dead membranes\"), FIG. 1 (a)", "value": "absence of any effect"}, {"measurement": "extent of lipid peroxidation (as malondialdehyde)", "setting": "[3]; low level of free radical initiator (iron/ascorbate) added, FIG. 1 (b)", "value": "massively amplified"}, {"measurement": "worms killed / toxicity in vivo", "setting": "C. elegans [4]", "value": "led to death after a few days"}, {"measurement": "concentration of lipid peroxidation marker 8-isoprostane in worm homogenates", "setting": "C. elegans [5]", "value": "increased to a constant maximum after only 6 h"}, {"measurement": "myofibrillar structure", "setting": "Drosophila melanogaster; FIG. 5A", "value": "intact"}, {"measurement": "ultrastructural effect on muscle mitochondria", "setting": "Drosophila melanogaster; FIG. 5A", "value": "intramitochondrial, spiral multilamellar lesions"}, {"measurement": "ultrastructural lesions in the nervous system (a, b) and photoreceptor cells (c)", "setting": "Drosophila melanogaster; FIG. 5B", "value": "spiral multilamellar lesions of mitochondrial origin"}, {"measurement": "other damage phenotype, nervous system (b)", "setting": "Drosophila melanogaster; FIG. 5B (b)", "value": "vacuolization and electron-dense aggregation"}, {"measurement": "other damage phenotype, photoreceptor cells (c)", "setting": "Drosophila melanogaster; FIG. 5B (c)", "value": "bright lipofuscin accumulation"}]}
